# Experimental data taken from a melting point compilation (Tetko et al.; mined from patent text by program, amines drawn as free bases though some values may be those of a salt).
row,SMILES,melting point [°C]
1,CC(=O)Nc1ccc2c(c1)C(=O)CCC2,165 to 166
2,COc1ccc2cc(-c3ccc(OCC(O)CNC(C)(C)C)cc3)n(C)c(=O)c2c1 (centres undefined),130 to 131
3,OCC1CN(Cc2ccccc2)CCN1Cc1ccccc1 (centres undefined),77
4,CC(=O)N1CCc2ccc(Cl)c(S(=O)(=O)Cl)c2C1,121 to 125
5,COc1ccc(C2S(=O)(=O)CCCS2(=O)=O)cc1OC,243 to 245
6,CN(c1cccc2cc(-c3ncc(CC#N)s3)[nH]c12)S(=O)(=O)c1cccs1,186 to 187
7,N#Cc1ncccc1C(=O)ON=Cc1ccc(Cl)cc1,160
8,O=C(COc1ccc([N+](=O)[O-])cc1)OCCO,73.5 to 75.5
9,CCOC(=O)c1nc(-c2c(Cl)cc(C(F)(F)F)cc2Cl)[nH]c1C#N,180 to 181
10,CS(=O)c1nnc(Sc2cc(C(C)(C)C)c(O)c(C(C)(C)C)c2)s1 (centres undefined),162 to 164
11,C#Cc1cnc2sc(S(=O)(=O)CCCCCCC)nn2c1=O,180 to 182
12,Cc1noc(NS(=O)(=O)c2ccccc2-c2ccc(-c3ncccn3)cc2CN2CCC(C)(C)C2=O)c1C,105 to 115
13,O=C(O)c1ccc(OCCNC(=O)C2Cc3ccccc3N2S(=O)(=O)c2ccc(-c3ccc(F)cc3F)cc2)cc1 (centres undefined),92
14,CC1CCCN1CCCN1C(=C(C#N)C#N)N(CCN2CCCCC2)c2ccccc21 (centres undefined),85 to 86
15,COC(=O)[C@@H](C)NC(=O)CBr,51 to 52
16,COCc1cnc2c(NC(=O)c3c(Cl)cccc3Cl)ccc(C)c2c1N1CCN(C)C1=O,105 to 112
17,CCCc1c(C#N)c(C(F)F)nc(C(F)(F)F)c1C(=O)OCC,40 to 41
18,CCOC(=O)C1=C2NCCN2C(C)=C(C(=O)OC(C)C)C1c1cccc([N+](=O)[O-])c1 (centres undefined),136
19,Cc1nn(-c2ccc(F)cc2)cc1C(=O)Nc1ccc(N2CCC(O)CC2)c(C#N)c1,224 to 225
20,CCC(I)CCCC(F)(F)C(F)(F)C(F)(F)C(F)(F)C(F)(F)C(F)(F)C(F)(F)C(F)(F)F (centres undefined),46 to 47
21,Cc1nc(C)c(-c2ccnc(Nc3ccc(C)c(S(=O)(=O)N4CCOCC4)c3)n2)s1,81 to 83
22,Cc1cn(Cc2ccc3c(c2)-c2[nH]nc(-c4ccsc4)c2C3)cn1,122 to 125

row,SMILES,melting point [°C]
1,CN(C)Cc1c(O)ccc2cc(Br)ccc12,95 to 96
2,CCC(O)(c1c(C(C)C)nn2ccccc12)C(C)C (centres undefined),96 to 98
3,COc1ccccc1Oc1c(NS(=O)(=O)c2cccs2)nc(-c2ncccn2)nc1OCCOc1ncc(Br)cn1,> 300
4,Nc1c(Br)cc(Br)cc1S(N)(=O)=O,165 to 169
5,CC(C)c1sc2ncnc(N)c2c1-c1ccc(NC(=O)c2ccccc2)cc1,> 250
6,CN(CCF)C1CN(c2ccc(N3C[C@H](CN=[N+]=[N-])OC3=O)cc2F)C1,60 to 63
7,CCCc1c(C(=O)C(C)C)c2ccc(C(N)=O)cc2n1Cc1ccccc1C,190 to 191
8,COC(=O)c1cc(C=O)ccc1C,60 to 61
9,CCCc1nc(C(C)(C)O)c(C(=O)OC(C)OC(=O)OC(C)C)n1Cc1ccc(-c2ccccc2C(=O)O)cc1 (centres undefined),94 to 96
10,Cc1ccc(NC(=O)/C=C/c2ccccc2C(F)(F)F)cc1NC(=N)c1ccccc1,112 to 116
11,N#Cc1c(Nc2ccccc2)cccc1Oc1ccccc1,146 to 147
12,COc1ccc(CCc2c(Cl)cncc2Cl)c2cc(C#N)nn12,208 to 209
13,COC(=O)[C@@H]1C[C@H](OC(=O)c2cccs2)C(=O)[C@H]2[C@@]1(C)CC[C@H]1C(=O)O[C@H](c3ccoc3)C[C@]21C,143 to 145
14,CCOC(=O)C(=NNc1ccccc1)C(C)=O,75 to 76
15,COc1ccc(C=Cc2cc(Cl)c(OC)c(OC)c2)cc1O,105 to 106
16,COC(=O)c1ccc(C(=O)C=CN(C)C)cc1Cl,92 to 96
17,C[C@@H](C(N)=O)c1ccc(NS(=O)(=O)c2ccc(Cl)cc2)cc1,150 to 153
18,O=c1nc(-c2ccc(C(F)(F)F)cn2)sc2ccccc12,207
19,COC(=O)Cn1c(=O)[nH][nH]c1=O,215 to 218
20,COc1cc(N2CCN(CCc3coc4ccc(F)cc34)CC2)c2ncccc2c1,80
21,Clc1ccc(/C=C/c2cc(Cl)cc(Cl)c2)cc1,94 to 96
22,Cc1c(C#N)sc(N=Nc2c(NCCO)nc(NCCO)c(C#N)c2C)c1C#N,268 to 269

# More lines, now with the values ahead:
row,melting point [°C],SMILES
1,290 to 291,CC(=O)N1CC(C)(C)c2cc3nc(C(F)(F)F)[nH]c3cc21
2,188 to 190,COc1ccc(C(=O)Nc2ccccc2)cc1NCc1ccoc1
3,54 to 54.5,CCOC(=O)n1c(SC(F)(F)F)cc(-c2ccc(F)cc2)c1-c1ccc(F)cc1
4,155 to 157,O=C(Nc1ccc(C(F)(F)F)cc1)N[C@@H](Cc1ccccc1)C(=O)OCc1ccccc1
5,188,CC(=O)Nc1ccc(S(=O)(=O)CCCl)cc1
6,267 to 270,Cc1[nH]c2cc(C(=O)c3ccccc3)ccc2c1/C=C/C(=O)c1ccncc1
7,278 to 279,Cc1nc(-n2cn[nH]c2=O)sc1C(=O)NCc1cccnc1
8,209 to 210,CCCCCCCCCCCC=CC(O)C(COC1OC(CO)C(O)C(O)C1O)NC(=O)CCCCCCCCCCCCCCCCC (centres undefined)
9,116 to 118,COc1ccc(-c2ccc(C=O)c(Cl)c2)cc1F
10,225 to 227,CCOC(=O)c1[nH]c2cc(Cl)cc(Cl)c2c1NCC(=O)c1ccccc1Cc1ccccc1
11,124 to 126,Oc1ccc2cc(Br)cc(F)c2c1
12,111 to 114,Cc1cccc(C(=O)NN(C(=O)c2ccccc2)C(C)(C)C)c1
13,54 to 55,COCOCc1cccc(-c2ccc(C(=O)OC)cc2)c1
14,90 to 95,CN(CCc1ccccc1)C(=O)C(C)(Cc1c[nH]c2ccccc12)NC(=O)OC1C2CC3CC(C2)CC1C3 (centres undefined)
15,117 to 120,COc1ccc(N2CCN(c3c(C)c(C)c4c(c3C)CC(C)(Cn3cccn3)O4)CC2)cc1 (centres undefined)
16,92 to 94,CN(C(=O)c1ccc2c(c1)nc(NC(=O)c1cccs1)n2CCCOC(=O)c1cccs1)C1CCCCC1
17,199 to 202,COc1cc(OC)nc(NC(=O)NS(=O)(=O)c2c3ccccc3nn2C)n1
18,87 to 89,COC(=O)C(C)(C)Nc1cc(Cl)ccc1[N+](=O)[O-]
19,36 to 37,FC(F)(F)c1ccc(Cl)cn1
20,139 to 141,N#CC(O)CC12CCC(c3ccccc31)c1ccccc12 (centres undefined)
21,150 to 151,CCCCCCCNC(=O)Nc1ccccc1CCc1cc(C(C)C)c(O)c(C(C)C)c1
22,220 to 221,O=C(c1ccc(-c2cc(Cl)ccc2O)cc1C(F)(F)F)N1CCCC1
23,270 to 273,COc1ccc2c(c1)c(-c1cc3nccnc3[nH]1)cn2CCO
24,217 to 221,CNC(=O)c1ccsc1Nc1nc(Nc2ccc3c(c2)CCN(CCOC)CC3)ncc1Cl
25,163,CCOC1=NC(N)=C(C(=O)OC)C(c2cccc([N+](=O)[O-])c2)C1C(=O)OC (centres undefined)
26,85,Brc1ccc(-c2coc(-c3ccccn3)n2)cn1
27,173 to 178,COc1cc2c(cc1OC)CN(CC(=O)Nc1ccc([N+](=O)[O-])cc1)CC2
28,147,Fc1ccc(Cn2c(NC3CCN(CCNC(=S)NCc4cccnc4)CC3)nc3ccccc32)cc1

row,melting point [°C],SMILES
1,98 to 99,CCCc1c(OCCCCCCc2ccccc2CCC(=O)O)ccc2c1OCCC2=O
2,334 to 337,O=c1ccsc2c1[nH]c1ccc(Br)cc12
3,146 to 147,CC1(C)SC(C)(C)N(C(=O)COc2ccc(Cl)cc2)C1C(=O)O (centres undefined)
4,245,Cc1cc(-c2cnn3c(C(F)(F)F)cc(-c4ccc(C(F)(F)F)c(F)c4)nc23)cc(C)n1
5,176,COC(=O)C1=C(C)NN=C(c2cccc(Cl)c2)C1c1ccccc1 (centres undefined)
6,81 to 82,O=C(NCCCSc1ccccn1)c1cccs1
7,110,O=C1C=CC(=O)c2ncccc21
8,242 to 245,CCNC(=O)c1ccc(N2CCN(Cc3cc(C)c4c(c3)NC(=O)C(C)O4)CC2)c(F)c1 (centres undefined)
9,216 to 217,O=C1CCCCN1Cc1ccc(CCn2cnc3cc(-c4ccc(F)cc4)sc3c2=O)cc1
10,129 to 131,Cc1nc(-c2ccccc2)c(-c2ccccc2)n1CCCCCCNC(=O)Oc1ccccc1F
11,138,CCOC(=O)C=Cc1ccc(NC(=O)CC)cc1
12,158 to 160,Cc1c2n(c3ccccc13)C(=O)C(Cc1cccnc1)CC2 (centres undefined)
13,184 to 187,CC(O)(c1nc2ccccc2[nH]1)C(F)(F)F (centres undefined)
14,88 to 89,CC(=O)c1cccc(C)c1NC(=O)CCl
15,195 to 196,Cc1cc(C)nc(NC(=O)NS(=O)(=O)c2ccccc2OS(=O)(=O)N(C)C)n1
16,101 to 104,COCCOc1cc(C(F)(F)F)cc(Oc2ccc(CCNc3ncnc4nccnc34)cc2)n1
17,244 to 247,CCCC(=O)c1c[nH]c2ccsc2c1=O
18,153 to 155,Nc1cc(O)c(C(=O)NCC2CN(Cc3ccccc3)CCO2)cc1Cl (centres undefined)
19,254 to 257,CC(C)(C)OC(=O)NCCCn1c(-c2ccc([N+](=O)[O-])cc2)csc1=Nc1ccccc1
20,176 to 177,COC(=O)CN1CCN(c2cccc(-c3nc4cc(OC)cc(OC)c4c(=O)[nH]3)n2)CC1
21,148,CCC(=O)NC1=NN(c2ccccc2)C(c2ccccc2)C1 (centres undefined)
22,211 to 212,Clc1ccc(-c2[nH]nc(C3=CCN4CCC[C@H]4C3)c2-c2ccncc2)cc1
23,74 to 76,COC(=O)c1cc(Cl)c(Cl)c(C2=NOCC2)c1C
24,> 340,COc1ccc(-c2ccc(C(=N)NO)cc2)cc1-c1nc2cc(C(=N)NO)ccc2[nH]1
25,57 to 58,CCCCCCCCCCCCCCCCCCNC(=O)OCC1(CO)CCCO1 (centres undefined)
26,150 to 155,COc1ccc(C(OCC2OC(n3cnc4c(=O)[nH]c(NC(=O)Cc5ccc(Cl)cc5)nc43)CC2O)(c2ccccc2)c2ccc(OC)cc2)cc1 (centres undefined)
27,133 to 135,Cc1cc2c(cc1C(=O)c1ccccc1Cl)OC(C(=O)O)O2 (centres undefined)
